Laboratory results as given in patent US12383527B2, “Methods for treating triple negative breast cancer using salvianolic acid B” (HOWARD UNIVERSITY, priority 2018, dated 2025).

Columns and labels:
ceramides = assay: Ceramide levels in MDA cells by flow cytometry; type: cell-based, human; conditions: Sal-B 50 μM, 24 hours
Method: Ceramide levels were further analyzed with flow cytometry, according to the method described above, through comparison of Sal-B treated and untreated MDA cells. MDA cells were treated with 50 μM and 100 μM of Sal-B, respectively, for 24 hours and ceramide levels were then analyzed by flow cytometry.
Similarly, immunohistochemistry was carried out, as generally described above, to evaluate the expression of ceramides in MDA tumor xenografts (FIG. 9, panel C). The fixed cells were sequentially incubated with anti-ceramide primary antibody (1:100) for 2 hours and PE-labeled secondary antibody (1:200) for 30 minutes, and the ceramide positive cells were counted (FIG. 9, panel B).

Bcl-xL = assay: Immunohistochemical staining of Bcl-xL in MDA tumor xenografts; type: in vivo, athymic nude mice; conditions: Sal-B 80 mg/kg three times per week; untreated tumors 11.8±3.0; P<0.05
Method: (§1) Human tumor xenografts in athymic nude mice. […] The animal protocol was approved by the Howard University Animal Care and Use Committee. Four-week-old female athymic nude mice (Nu/Nu) were obtained from Harlan Sprague Dawley (Indianapolis, IN). All mice were provided the Harlan Teklad #2018 Global 18% protein rodent diet and water ad libitum. Mice were housed in temperature-controlled rooms (74±2° F.) with a 12-hour alternating light-dark cycle. MDA cells (3×10^6/50 μL/spot) were subcutaneously injected into the both sides of lower back of mice using a 27-gauge needle. […]
Immunohistochemical staining was performed as described previously (Hao Y, et al., “Enforced expression of miR-101 inhibits prostate cancer cell growth by modulating the COX-2 pathway in vivo,” Cancer Prev Res (Phila), 2011; 4: 1073-1083). […] For the quantification, ten high-magnification (40×) fields were randomly selected from each slide of tumors and the positive cells were counted. The protein expression was expressed as the average number of positive cells per high magnification field.

p-ERK = assay: Western blot of p-ERK expression in MCF-7 and MDA cells; type: cell-based, human; conditions: different concentrations of Sal-B, 24 hours
Method: The immunohistochemical results were consistent with those from Western blotting (FIG. 7, panel A). Western blot analysis was used to determine the expression of apoptosis-related proteins Bcl-XL, survivin, caspase-3 and caspase-8 (FIG. 7, panel A). β-actin was used as an internal control for Western blotting. The MCD-7 and MDA cells were treated with Sal-B (50 μM and 100 μM) and doxorubicin (0.1 μM and 1 μM), respectively, for 24 hours. Proteins were extracted from the cells with RIPA lysis buffer (Santa Cruz Biotechnology, Santa Cruz, CA) and the protein concentrations were quantified with Bio-Rad protein quantification kit. Whole-cell proteins were separated on 8% SDS-polyacrylamide gel, transferred to the polyvinylidene difluoride membrane (Bio-Rad), and then probed with the indicated primary antibodies overnight at 4° C. Washed blots were then incubated with horseradish peroxidase-conjugated anti-rabbit, anti-mouse, or anti-goat antibody (Santa Cruz Biotechnology), respectively, for one hour at room temperature. Blots were developed and visualized with ECL detection system (Bio-Rad).
Because phospho-p44/42 extracellular signal-regulated kinases (p-ERK) is a key enzyme in the MAPK signal pathway, the expression of p-ERK was also investigated in MCF-7 and MDA cells following exposure to different concentrations of Sal-B for 24 hours.

MDA tumor xenografts = assay: TUNEL assay of apoptotic cells in MDA tumor xenografts; type: in vivo, athymic nude mice; conditions: Sal-B 80 mg/kg three times per week; untreated tumors 3.1±1.8; P<0.05
Method: as §1
Apoptotic cells in MDA tumor xenografts were also analyzed by a terminal deoxynucleotidyl transferase-mediated dUTP nick end labeling (TUNEL) assay using the TdT-FragEL DNA Fragmentation Detection Kit (EMD Millipore, Burlington, MA) as previously described (Li H, et al., “Cellular uptake and anticancer activity of salvianolic acid B phospholipid complex loaded nanoparticles in head and neck cancer and precancer cells,” Colloids Surf B Biointerfaces. 2016; 147: 65-72). […]

MDA-MB-231 cells = assay: Luciferase assay (bioluminescent cell viability); type: cell-based, human
Method: (§2) Cell lines and culture. MCF-7 and MDA human breast cancer cell lines stably transfected with firefly luciferase gene were purchased from Caliper Life Sciences (Hanover, MD). MCF-7 cells were cultured in DMEM medium (Invitrogen, Carlsbad, CA) and MDA cells were grown in DMEM/F-12 (1:1) medium (Invitrogen). Both media were supplemented with 10% fetal bovine serum (Invitrogen) and antibiotic-antimycotic mixture (100 IU/ml penicillin and 100 μg/ml streptomycin; Cellgro). The cells were maintained at 37° C. in 5% CO2. All experiments were performed when the cells were in the logarithmic phase of growth. Luciferase assay. The MDA cell line and the hormone receptor-positive MCF-7 cell line were utilized to test the effectiveness of Sal-B and doxorubicin on cancer cell viability. Both cell lines had been stably transfected and expressed the firefly luciferase gene. The bioluminescent signal intensity reflects the cell metabolic activity, being highly correlated with the cell viability. Cell viability was evaluated using the sensitive bioluminescent optical imaging. The cells (10,000 per well) were seeded in flat-bottomed 96-well plates in the above-identified medium with 10% fetal bovine serum and allowed to grow overnight. The old medium was then replaced with fresh medium containing different concentrations of Sal-B (50, 100, 150, and 200 μM) or doxorubicin (0.1, 0.2, 0.5, and 1 μM). The cells were further cultured for 24 hours and D-luciferin was added to each well and mixed gently (final concentration of 150 μ/ml). The signal was measured with the Xenogen IVIS 200 imaging system (Caliper Life Sciences, Hopkinton, MA, USA). The system was equipped with a highly sensitive, cooled charge-coupled device (CCD) camera and a light-tight specimen box. Imaging and quantification of signals was controlled by the acquisition and analysis software Living Image 3.0. The bioluminescent signal from the cells in each well was expressed as total flux (photons per second (p/s)). At least five replicates were performed in each experiment, and each experiment was repeated at least three times. The representative data are presented.

MCF-7 cells = assay: Luciferase assay (bioluminescent cell viability); type: cell-based, human; conditions: Homo sapiens
Method: as §2

Q: With `O=C(/C=C/c1ccc(O)c2c1[C@H](C(=O)O[C@H](Cc1ccc(O)c(O)c1)C(=O)O)[C@@H](c1ccc(O)c(O)c1)O2)O[C@H](Cc1ccc(O)c(O)c1)C(=O)O` [Sal-B, Salvianolic acid B] as the compound, how does the “ceramide level by flow cytometry” value (ceramides) read?
A: sufficient to enhance the ceramide level

Q: What about the “expression of Bcl-xL in tumors” value (Bcl-xL) of the same compound?
A: 1.3±0.4 positive cells per high magnif

Q: And the “p-ERK expression (normalized to β-actin)” value (p-ERK; MCF-7 cells)?
A: down-regulated

Q: What about the “p-ERK expression (normalized to β-actin)” value (p-ERK; MDA cells) of the same compound?
A: down-regulated

Q: What about the “number of apoptotic cells (TUNEL)” value (MDA tumor xenografts) of the same compound?
A: 12.2±3.2

Q: And the viability at 100 µM (MDA-MB-231 cells; Homo sapiens, MDA-MB-231, 24 h, read-out: cell viability compared with untreated cells)?
A: 69%

Q: What about the IC50 (MDA-MB-231 cells; Homo sapiens, MDA-MB-231, MDA cells, 24 hours, read-out: half maximal inhibitory concentration (IC50), cell viability) of the same compound?
A: 125 µM

Q: What about the “difference in inhibitory effect on cell viability between MDA and MCF-7 cells” value (MDA-MB-231 cells; Sal-B 50-200 μM, 24 hours) of the same compound?
A: No significant difference

Q: What about the viability at 100 µM (MCF-7 cells; MCF7, 24 h, read-out: cell viability compared with untreated cells) of the same compound?
A: 65%

Q: And the IC50 (MCF-7 cells; MCF7, MCF-7 cells, 24 hours, read-out: half maximal inhibitory concentration (IC50), cell viability)?
A: 120 µM
